Measurements from patent US7504243B2, “Methods for the production of biliverdin” (The United States of America as represented by the …, priority 2004, dated 2009).

Tested on: CaHMX1 promoter
Assay: Renilla luciferase reporter driven by the CaHMX1 promoter in knock-in strain CAMP Ki-29
Type: cell-based, Candida albicans
Conditions: for Luciferase Activity: strain Ki-29, iron-replete medium, 30° C., 15 min, 1 mg/ml protein, mean±S.D. of two experiments, light units per 5×10^7 cells/assay point
Source text: and cloning into pCR-BluntII TOPO (Invitrogen). The inserted fragment is then excised with SstI and PstI and cloned into plasmid pCRW3 (Srikantha, T. et al. (1996) “THE SEA PANSY RENILLA RENIFORMIS LUCIFERASE SERVES AS A SENSITIVE BIOLUMINESCENT REPORTER FOR DIFFERENTIAL GENE EXPRESSION IN CANDIDA ALBICANS,” J. Bacteriol. 178:121-129) using similar sites resulting in plasmid pPt14. This plasmid was linearized at the unique KpnI site in the CaHMX1 promoter (see, FIG. 2, Panel D) to enable recombination into the CaHMX1 genomic site in the C. albicans strain Red 3/6 (Srikantha, T. et al. (1996) “THE SEA PANSY RENILLA RENIFORMIS LUCIFERASE SERVES AS A SENSITIVE BIOLUMINESCENT REPORTER FOR DIFFERENTIAL GENE EXPRESSION IN CANDIDA ALBICANS,” J. Bacteriol. 178:121-129). […] This knock-in procedure is desirable because the reporter plasmid pPt14 is not functional when integrated into the Ade2 locus when introduced as an episome. The resulting strain, CAMP Ki-29, is used for all reporter assays discussed herein. The correct insertion sites of the preceding constructs in the genomes of strains CAMP 50 and CAMP Ki-29 are verified by Southern blotting.
Luciferase Assays—Reporter assays use C. albicans cells that are grown at 30° C. in minimal YNB medium with ammonium sulfate and 2% glucose. 5×10^7 cells were harvested, cell extracts were obtained by glass bead lysis (Srikantha, T. et al. (1996) “THE SEA PANSY RENILLA RENIFORMIS LUCIFERASE SERVES AS A SENSITIVE BIOLUMINESCENT REPORTER FOR DIFFERENTIAL GENE EXPRESSION IN CANDIDA ALBICANS,” J. Bacteriol. 178:121-129), and luminescence is determined using coelenterazine as a substrate (Promega). Luciferase activity is defined as the number of light units using 5×10^7 cells/assay point in 200 μl of lysis buffer using a 5-μl volume for light measurement. To assess regulation of the promoter by iron, the ferrous iron chelator ferrozine is added to cell cultures in the presence of FAS to buffer iron concentrations as described (Philpott, C. C. et al. (1998) “CELL-CYCLE ARREST AND INHIBITION OF G1 CYCLIN TRANSLATION BY IRON IN AFT1-1^UP YEAST,” EMBO J. 17, 5026-5036) (see also, Chaney, R. L. (1988) “PLANTS CAN UTILIZE IRON FROM IRON-N,N′-DI-2 HYDROXYBENZOYLETHYLENEDIAMINE-N,N′-DIACETIC ACID, A FERRIC CHELATE WITH 1,000,000 GREATER FORMATION CONSTANT THAN IRON-EDDHA,” J. Plant Nutr. 11, 1033-1050). FAS added to 1 mM ferrozine at 10, 100, and 400 μM represents low, optimal, and high levels of iron, respectively.
To ensure that this induction is specific for Hb, several control proteins are tested for their ability to stimulate luciferase activity in strain Ki-29 (Table 1). […] Therefore, the iron in Hb is not essential for activity, but the native conformation of globin induced by porphyrin binding is required.

Substance	Luciferase Activity	further results
hemin [reference compound]		increase in activity over the iron-replete control when hemin is added to Hb combined with ferrozine (24 h, Hb 25 μM + ferrozine 100 μM + hemin 25 μM): 2.5 fold; increase of CaHMX1 promoter activity by hemin after 24 h (CAMP Ki-29 cells, hemin 25 μM, 24 h): about 2 fold; lag time before induction of promoter activity (iron-deficient medium, 25 μM hemin, extended time course): 3 h
Apo-transferrin: control protein from Sigma	64.4 ± 11.8	
Holo-transferrin: ferroprotein transferrin, control protein from Sigma	20.7 ± 0.55	
CoPPIX-globin: The cobalt analog of Hb; cobalt protoporphyrin IX substituted for the heme in globin	161.7 ± 24	
Fetuin: control protein from Sigma	59.3 ± 5.9	
Casein	38.6 ± 8.1	
